The source of these data is US10717720B2, “Modified compound of andrographolide” (Heilongjiang Zhenbaodao Pharmaceutical Co., Ltd., priority 2015, dated 2020).

The experiment relates to LPS-induced IL-6 release level from THP-1 cells. Description: Test of IL-6 release from THP-1 cells (LPS-induced, IL-6 in supernatant detected by CBA). The format is cell-based. The settings on record: Homo sapiens, read-out: Inhibition rate @ 10 uM. The procedure, abridged:
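THP-1 cells were treated with compound at final 30, 10, 3 and 1 uM, with dexamethasone 100 nM as reference, then stimulated with LPS. The LPS working solution was 800 ng/ml. After 24 h at 37 °C, IL-6 in the supernatant was measured by CBA.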

Setting [1] is: inflammatory factor IL-6 detected by CBA, compound 10 uM, LPS-stimulated THP-1 cells, supernatant after 24 hours.

Where two headings read alike, the source gives them in different places.

One may read the inhibition as how much of the control response was suppressed. For the molecule `C=C1CCC2[C@]3(C)CO[C@@H](C4CCCC4)O[C@@H]3CC[C@@]2(C)[C@@H]1CCN(CC(=O)O)CC(=O)O` (stereo partly drawn) [Compound 404, 2,2′-((2-((3R,4aR,6aS,7R,10bR)-3-cyclopentyl-6a,10b-dimethyl-8-methylene-decahydro-1H-naphtho[2,1-d][1,3]dioxin-7-yl)ethyl)azanediyl)diacetic acid], the inhibition at 10 µM (THP-1, 24 h) was below 30%. On to `C=C1CCC2[C@]3(C)CO[C@@H](C4CCCC4)O[C@@H]3CC[C@@]2(C)[C@@H]1CCN(CCO)CCO` (stereo partly drawn) [Compound 191, 3-((2-((3R,4aR,6aS,7R,10bR)-3-cyclopentyl-6a,10b-dimethyl-8-methylene-decahydro-1H-naphtho[2,1-d][1,3]dioxin-7-yl)ethyl)amino)N,N-diethanolamine], for which the inhibition at 10 µM under setting [1] is below 30%. The same measure, in the same setting: next, `C=C1CCC2[C@]3(C)CO[C@@H](C4CCCC4)O[C@@H]3CC[C@@]2(C)[C@@H]1CCOc1ccncc1F` (stereo partly drawn) [Compound 344, 4-(2-((3R,4aR,6aS,7R,10bR)-3-cyclopentyl-6a,10b-dimethyl-8-dihydromethylenedecahydro-1H-naphtho[2,1-d][1,3]dioxin-7-yl)ethoxy)-3-fluoropyridine]: above 60%; `C=C1CCC2[C@]3(C)CO[C@@H](C4CCCC4)O[C@@H]3CC[C@@]2(C)[C@@H]1CCN1CCOC1=O` (stereo partly drawn) [Compound 196, 3-(2-((3R,4aR,6aS,7R,10bR)-3-cyclopentyl-6a,10b-dimethyl-8-decahydromethylene-1H-naphtho[2,1-d][1,3]dioxin-7-yl)ethyl)oxazolidin-2-one]: 30 to 60%. Still for that read-out and setting: next, `C=C1CCC2[C@]3(C)CO[C@@H](C4CCCC4)O[C@@H]3CC[C@@]2(C)[C@@H]1CCN1CCC(OC)C1` (stereo partly drawn) [Compound 116]: 30 to 60%. Same read-out and setting: next, `C=C1CCC2[C@]3(C)CO[C@@H](C4CCCC4)O[C@@H]3CC[C@@]2(C)[C@@H]1CCOC1CCN(C(C)(C)C(=O)O)CC1` (stereo partly drawn) [Compound 463]: above 60%. Regarding `C=C1CCC2[C@]3(C)CO[C@@H](C4CCCC4)O[C@@H]3CC[C@@]2(C)[C@@H]1CCOc1cnn(C)c1` (stereo partly drawn) [Compound 289, 4-(2-((3R,4aR,6aS,7R,10bR)-3-cyclopentyl-6a,10b-dimethyl-8-dihydromethylenedecahydro-1H-naphtho[2,1-d][1,3]dioxin-7-yl)ethoxy)-2-methyl-1H-pyrazole], the inhibition at 10 µM under setting [1] is above 60%.

For the molecule `C=C1CCC2[C@](C)(CO)[C@H](O)CC[C@@]2(C)[C@@H]1CCOC1CCN(C)CC1` (stereo partly drawn) [Compound 386, (1R,2R,4aS,5R)-1-(hydroxymethyl)-1,4a-dimethyl-6-dihydromethylene-5-(2-((1-methylpiperidine-4-yl)oxy)ethyl) decahydronaphthalene-2-ol], the inhibition at 10 µM under setting [1] is below 30%. Same read-out and setting: the same measure for `C=C1CCC2[C@]3(C)CO[C@@H](C4CCCC4)O[C@@H]3CC[C@@]2(C)[C@@H]1CCN1CC[C@H](NC(C)=O)C1` (stereo partly drawn) [Compound 149, N-((3 S)-1-(2-((3R,4aR,6aS,7R,10bR)-3-cyclopentyl-6a,10b-dimethyl-8-methylenedecahydro-1H-naphtho[2,1-d][1,3]dioxain-7-yl)ethyl)pyrrolidin-3-yl)acetamide]: 30 to 60%; for `C=C1CCC2[C@]3(C)CO[C@@H](C4CCC4)O[C@@H]3CC[C@@]2(C)[C@@H]1CCOc1ccncc1` (stereo partly drawn) [Compound 412, 4-(2-((3R,4aR,6aS,7R,10bR)-3-cyclobutyl-6a,10b-dimethyl-8-dihydromethylenedecahydro-1H-naphtho[2,1-d][1,3]dioxin-7-yl)ethoxy)pyridine]: above 60%. On the same count and under the same terms, next, `C=C1CCC2[C@]3(C)CO[C@@H](C4CCCC4)O[C@@H]3CC[C@@]2(C)[C@@H]1CCN1CCC(CO)CC1` (stereo partly drawn) [Compound 002, (1-(2-((3R,4aR,6aS,7R,10bR)-3-cyclopentyl-6a,10b-dimethyl-8-methylene-decahydro-1H-naphtho[2,1-d][1,3]dioxin-7-yl)ethyl)piperidin-4-yl)methanol]: below 30%; `C=C1CCC2[C@]3(C)CO[C@@H](C4CCCC4)O[C@@H]3CC[C@@]2(C)[C@@H]1CCOc1cc[nH]c(=O)c1` (stereo partly drawn) [Compound 430, 4-(2-((3R,4aR,6aS,7R,10bR)-3-cyclopentyl-6a,10b-dimethyl-8-dihydromethylenedecahydro-1H-naphtho[2,1-d][1,3]dioxin-7-yl)ethoxy)pyridin-2(1H)-one]: 30 to 60%.

With `C=C1CCC2[C@]3(C)CO[C@@H](C4CCCC4)O[C@@H]3CC[C@@]2(C)[C@@H]1CCOc1cc(C#N)ccc1C(=O)O` (stereo partly drawn) [Compound 445, 4-cyano-2-(2-((3R,4aR,6aS,7R,10bR)-3-cyclopentyl-6a,10b-dimethyl-8-dihydromethylenedecahydro-1H-naphtho[2,1-d][1,3]dioxin-7-yl)ethoxy)benzoic acid], under setting [1], the inhibition at 10 µM is below 30%. The same measure, in the same setting: the same measure for `C=C1CCC2[C@]3(C)CO[C@@H](C4CCCC4)O[C@@H]3CC[C@@]2(C)[C@@H]1CCNCC(=O)O` (stereo partly drawn) [Compound 403, 2-((2-((3R,4aR,6aS,7R,10bR)-3-cyclopentyl-6a,10b-dimethyl-8-methylenedecahydro-1H-naphtho[2,1-d][1,3]dioxin-7-yl)ethyl)amino)acetic acid]: below 30%.

With `C=C1CCC2[C@]3(C)CO[C@@H](C4CCCC4)O[C@@H]3CC[C@@]2(C)[C@@H]1CCOc1ccncc1` (stereo partly drawn) [Compound 297, 4-(2-((3R,4aR,6aS,7R,10bR)-3-cyclopentyl-6a,10b-dimethyl-8-dihydromethylenedecahydro-1H-naphtho[2,1-d][1,3]dioxin-7-yl)ethoxy)pyridine], the inhibition at 10 µM under setting [1] is above 60%. Still for that read-out and setting: next, `C=C1CCC2[C@]3(C)CO[C@@H](c4ccc(F)c(F)c4)O[C@@H]3CC[C@@]2(C)[C@@H]1CCN1C(=O)CNC1=O` (stereo partly drawn) [Compound 230, 3-(2-((3R,4aR,6aS,7R,10bR)-3-(3,4-difluorophenyl)-6a,10b-dimethyl-8-methylenedecahydro-1H-naphtho[2,1-d][1,3]dioxin-7-yl)ethyl)tetrahydroimidazole-2,4-dione]: above 60%; `C=C1CCC2[C@]3(C)CO[C@@H](C4CCCC4)O[C@@H]3CC[C@@]2(C)[C@@H]1CCN1CCCC[C@@H]1C(=O)O` (stereo partly drawn) [Compound 451, (2R)-1-(2-((3R,4aR,6aS,7R,10bR)-3-cyclopentyl-6a,10b-dimethyl-8-methylene-decahydro-1H-naphtho[2,1-d][1,3]dioxin-7-yl)ethyl)piperidine-2-carboxylic acid]: 30 to 60%. As for `C=C1CCC2[C@]3(C)CO[C@@H](C4CCCC4)O[C@@H]3CC[C@@]2(C)[C@@H]1CCOc1ccncn1` (stereo partly drawn) [Compound 312, 4-(2-((3R,4aR,6aS,7R,10bR)-3-cyclopentyl-6a,10b-dimethyl-8-dihydromethylenedecahydro-1H-naphtho[2,1-d][1,3]dioxin-7-yl)ethoxy)pyrimidine], the inhibition at 10 µM (THP-1, 24 h) is below 30%. For `C=C1CCC2[C@]3(C)CO[C@@H](C4CCCC4)O[C@@H]3CC[C@@]2(C)[C@@H]1CCOc1ncccc1C(=O)O` (stereo partly drawn) [Compound 436, 2-(2-((3R,4aR,6aS,7R,10bR)-3-cyclopentyl-6a,10b-dimethyl-8-dihydromethylenedecahydro-1H-naphtho[2,1-d][1,3]dioxin-7-yl)ethoxy)nicotinic acid], under setting [1], the inhibition at 10 µM was below 30%. On the same count and under the same terms, the same measure for `C=C1CCC2[C@]3(C)CO[C@@H](CCC(=O)O)O[C@@H]3CC[C@@]2(C)[C@@H]1CCOc1ccncc1` (stereo partly drawn) [Compound 408]: below 30%; for `C=C1CCC2[C@]3(C)CO[C@@H](C4CCCC4)O[C@@H]3CC[C@@]2(C)[C@@H]1CCN1CCOC[C@@H]1C(=O)O` (stereo partly drawn) [Compound 456]: above 60%.
